# Laboratory results taken from US7771977B2, “Alkane polyol dehydrogenase” (National University Corporation Nara Institute of Science …, priority 2006, dated 2010).
# Entries after “also recorded” stand apart in the source; their conditions may differ. Where two headings read alike, the source gives them in different places.
# What was measured:
# [1] = test system: alkane polyol dehydrogenase expressed in E. coli HB101 (pSE-HOG); test: Substrate specificity, cell extract of transformant E. coli HB101 (pSE-HOG); assay type: biochemical, Pichia ofunaensis; conditions: for dehydrogenation (oxidative) activity of E. coli HB101 (pSE-HOG), in words: Table 4; for Activity, E. coli HB101 (pSE-HOG): cell extract, 2 mM NAD+, pH 8.0, 25° C.
# Protocol: The Escherichia coli HB101 strain containing the pSE-HOG was cultivated in LB medium containing ampicillin. When the absorbance at 600 nm was 0.5, 0.1 mM IPTG was added thereto. Six hours after the addition, cells were harvested by centrifugal separation.
# The obtained cells were suspended in a cell disruption solution (100 mM potassium phosphate buffer solution (pH 8.0)). The cell bodies therein were disrupted using a mini bead beater (produced by BioSpec Products), then subjected to centrifugal separation for 10 minutes under an acceleration of 16,000 g. Thereby, the supernatant thereof as a cell extract was obtained.
# (§1) 1 U was defined as the amount of enzyme that catalyzes the formation of 1 μmol of NADH per minute.
# (§2) The substrate specificity of the protein of the present invention was analyzed using the purified enzyme obtained in Example 1 and the transformant (E. coli HB101 (pSE-HOG)) obtained in Example 3. For comparison, the same analysis was conducted with respect to a transformant (E. coli HB101 (pSE420D)) that was produced in the same manner as for E. coli HB101 (pSE-HOG), except that the plasmid (pSE420D) in which the relevant enzyme gene was not inserted was used.
# (§3) Measurement was performed in the same manner as in the activity measurements described earlier in 4-1.
# [2] = test system: alkane polyol dehydrogenase (purified enzyme); assay type: biochemical, Pichia ofunaensis
# Protocol: (§4) The reaction solutions were prepared using plural substrates with varied concentrations. Each solution contained a substrate, 2 mM NAD^+, and an enzyme, and was allowed to react in a 100 mM potassium phosphate buffer solution (pH 8.0) at 25° C. Then, changes in absorbance (molar absorption coefficient 6,220 M^−1·cm^−1) at 340 nm due to the NADH formation were measured. 1 U is defined as an enzyme amount for catalyzing 1 μmol NADH formation per minute.
# (§5) The alkane polyol dehydrogenase obtained in Example 1 was utilized to measure the enzyme activities in the following manner.
# as §1, §3
# Such activity was measured by causing a reaction mixture containing 5 mM (R)-1,2-octanediol, 2 mM NAD^+ and enzyme to react in a 100 mM potassium phosphate buffer solution (pH 8.0) at 25° C., then observing the change, due to NADH formation, of absorbance (molecular absorption coefficient 6,220 M^−1 ·cm^−1) at 340 nm. 1 U was defined as the amount of enzyme that catalyzes the formation of 1 μmol of NADH per minute.
# [3] = test system: alkane polyol dehydrogenase (purified enzyme); test: Reduction activity measurement with purified alkane polyol dehydrogenase (NADH reduction at 340 nm); assay type: biochemical, Pichia ofunaensis; conditions: for Reduction Activity: 0.2 mM NADH, pH 6.0, 25° C.; for reduction activity of the purified enzyme, in words: Table 3
# Protocol: as §4, with “substrate, 0.2” for “substrate, 2”, “mM NADH,” for “mM NAD^+,”, “(pH 6.0)” for “(pH 8.0)”, “NADH reduction” for “NADH formation”, “per minutes.” for “per minute.”
# as §5
# 1 U was defined as the amount of enzyme that catalyzes the reduction of 1 μmol of NADH per minute.
# [4] = test system: E. coli HB101 (pSE420D); test: Substrate specificity, comparison transformant E. coli HB101 (pSE420D) without the enzyme gene; assay type: biochemical, Escherichia coli; conditions: for Activity, E. coli HB101 (pSE-420D): comparison transformant, substrate 100 mM, 2 mM NAD+, pH 8.0, 25° C.
# Protocol: as §1, §2, §3
# [5] = purified enzyme, Tables 2 and 4
# [6] = purified enzyme, substrate 100 mM, 2 mM NAD+, pH 8.0, 25° C.
compound,measurement,setting,value
"CC(O)CO (stereo not drawn) [1,2-Propanediol]","dehydrogenation (oxidative) activity of E. coli HB101 (pSE-HOG), in words",[1],high dehydrogenation activity
same,"oxidative (dehydrogenation) activity of the purified enzyme, in words",[2]; [5],well-oxidized; also recorded: high dehydrogenation activity
same,Oxidative Activity,[2]; [6],71.7 U/mg
CCCCCCC(C)O (stereo not drawn) [2-Octanol],"oxidative (dehydrogenation) activity of the purified enzyme, in words",[2]; [5],no activity was observed
CO [Methanol],"oxidative (dehydrogenation) activity of the purified enzyme, in words",[2]; [5],did not have oxidative activity
CCCC(C)=O [2-Pentanone],Reduction Activity,[3]; substrate 100 mM,3.71 U/mg
"CC(O)CC(C)O (stereo not drawn) [2,4-Pentanediol]","oxidative (dehydrogenation) activity of the purified enzyme, in words",[2]; [5],only a weak oxidative activity
same,Oxidative Activity,[2]; [6],2.53 U/mg
"OCC[C@@H](O)CO [(R)-1,2,4-Butanetriol]","dehydrogenation (oxidative) activity of E. coli HB101 (pSE-HOG), in words",[1],significant dehydrogenation activity
same,"Activity, E. coli HB101 (pSE-HOG)",[1]; substrate 100 mM,0.15 U/mg
same,"oxidative (dehydrogenation) activity of the purified enzyme, in words",[2]; [5],significant dehydrogenation activity
same,Oxidative Activity,[2]; [6],3.9 U/mg
CC(=O)C(C)O (stereo not drawn) [3-Hydroxy-2-butanone],Oxidative Activity,[2]; [6],0.55 U/mg
same,"reduction activity of the purified enzyme, in words",[3],high reduction activity
same,Reduction Activity,[3]; substrate 100 mM,102 U/mg
CCCC(=O)CC [3-Hexanone],Reduction Activity,[3]; substrate 10 mM,1.39 U/mg
"CCCCCCC(O)CO (stereo not drawn) [1,2-Octanediol]","dehydrogenation (oxidative) activity of E. coli HB101 (pSE-HOG), in words","[1]; listed as (R,S)-1,2-octanediol",excellent dehydrogenation activity; also recorded: show an oxidative activity
same,"Activity, E. coli HB101 (pSE-HOG)",[1]; substrate 5 mM,0.53 U/mg
same,"dehydrogenation activity of E. coli HB101 (pSE420D), in words",[4]; Table 4,does not show the dehydrogenation activity
same,"oxidative (dehydrogenation) activity of the purified enzyme, in words",[2]; [5],well-oxidized
same,"oxidative (dehydrogenation) activity of the purified enzyme, in words","[2]; purified enzyme, Tables 2 and 4, listed as (R,S)-1,2-octanediol",excellent dehydrogenation activity; also recorded: show an oxidative activity
same,Oxidative Activity,"[2]; purified enzyme, substrate 5 mM, 2 mM NAD+, pH 8.0, 25° C.",64.3 U/mg
"CCCCCC[C@@H](O)CO [(R)-1,2-octanediol]","(R)-1,2-octanediol dehydrogenase activity per 1 mg of the purified protein","[2]; per 1 mg purified protein, 5 mM substrate, 2 mM NAD+, pH 8.0, 25° C.",≥ 60 U
CCC(C)=O [2-Butanone],Reduction Activity,[3]; substrate 100 mM,0.40 U/mg
CCC(=O)CO [1-Hydroxy-2-butanone],Reduction Activity,[3]; substrate 100 mM,5.84 U/mg
"CC(O)C(C)O (stereo not drawn) [meso-2,3-Butanediol]","Activity, E. coli HB101 (pSE-HOG)",[1]; substrate 100 mM,1.17 U/mg
same,"Activity, E. coli HB101 (pSE-420D)",[4],<0.1 U/mg
same,Oxidative Activity,[2]; [6],160 U/mg
"C[C@@H](O)[C@@H](C)O [(2R,3R)-2,3-Butanediol]","Activity, E. coli HB101 (pSE-HOG)",[1]; substrate 100 mM,0.72 U/mg
same,Oxidative Activity,[2]; [6],82.1 U/mg
CC(C)O [Isopropanol],"oxidative (dehydrogenation) activity of the purified enzyme, in words",[2]; [5],weak oxidative activity
same,Oxidative Activity,[2]; [6],1.45 U/mg
"C[C@@H](O)CO [(R)-1,2-Propanediol]","Activity, E. coli HB101 (pSE-HOG)",[1]; substrate 100 mM,0.80 U/mg
same,"Activity, E. coli HB101 (pSE-420D)",[4],<0.1 U/mg
same,Oxidative Activity,[2]; [6],89.2 U/mg
"CCCCCC(O)CO (stereo not drawn) [1,2-Heptanediol]","oxidative (dehydrogenation) activity of the purified enzyme, in words",[2]; [5],well-oxidized
same,Oxidative Activity,"[2]; purified enzyme, substrate 10 mM, 2 mM NAD+, pH 8.0, 25° C.",27.8 U/mg
CCO [Ethanol],"oxidative (dehydrogenation) activity of the purified enzyme, in words",[2],did not have oxidative activity
"CCCC(=O)C(C)=O [2,3-Hexanedione]","reduction activity of the purified enzyme, in words",[3],high reduction activity
same,Reduction Activity,[3]; substrate 5 mM,67.5 U/mg
"C[C@H](O)CO [(S)-1,2-Propanediol]","Activity, E. coli HB101 (pSE-HOG)",[1]; substrate 100 mM,0.29 U/mg
same,"Activity, E. coli HB101 (pSE-420D)",[4],<0.1 U/mg
same,Oxidative Activity,[2]; [6],36.4 U/mg
"CC(O)CCO (stereo not drawn) [1,3-Butanediol]","oxidative (dehydrogenation) activity of the purified enzyme, in words",[2]; [5],only a weak oxidative activity
same,Oxidative Activity,[2]; [6],6.0 U/mg
CCCCO [1-Butanol],"oxidative (dehydrogenation) activity of the purified enzyme, in words",[2],did not have oxidative activity
CCC(C)O (stereo not drawn) [2-Butanol],"oxidative (dehydrogenation) activity of the purified enzyme, in words",[2],weak oxidative activity
same,Oxidative Activity,[2]; pH 8,<0.1 U/mg
"CCCCC(O)CO (stereo not drawn) [1,2-Hexanediol]","oxidative (dehydrogenation) activity of the purified enzyme, in words",[2]; [5],well-oxidized
same,Oxidative Activity,[2]; [6],38.4 U/mg
"CC(O)CCC(C)O (stereo not drawn) [2,5-Hexanediol]","oxidative (dehydrogenation) activity of the purified enzyme, in words",[2]; [5],only a weak oxidative activity
same,Oxidative Activity,[2]; [6],0.77 U/mg
"CC(O)C(C)O (stereo not drawn) [2,3-Butanediol]","dehydrogenation (oxidative) activity of E. coli HB101 (pSE-HOG), in words",[1],high dehydrogenation activity
same,"oxidative (dehydrogenation) activity of the purified enzyme, in words",[2]; [5],well-oxidized; also recorded: high dehydrogenation activity
same,Oxidative Activity,[2]; [6],50.0 U/mg
O=C1CCCCC1 [Cyclohexanone],Reduction Activity,[3]; substrate 10 mM,0.28 U/mg
CCCO [1-Propanol],"oxidative (dehydrogenation) activity of the purified enzyme, in words",[2],did not have oxidative activity
OCc1ccccc1 [Benzyl alcohol],"oxidative (dehydrogenation) activity of the purified enzyme, in words",[2]; [5],did not have oxidative activity
"CCC(=O)C(=O)CC [3,4-Hexanedione]","reduction activity of the purified enzyme, in words",[3],high reduction activity
same,Reduction Activity,[3]; substrate 5 mM,32.8 U/mg
CCCCCO [1-Pentanol],"oxidative (dehydrogenation) activity of the purified enzyme, in words",[2]; [5],did not have oxidative activity
"CCC(=O)C(C)=O [2,3-Pentanedione]","reduction activity of the purified enzyme, in words",[3],high reduction activity
same,Reduction Activity,[3]; substrate 5 mM,73.8 U/mg
"C[C@H](O)[C@H](C)O [(2S,3S)-2,3-Butanediol]","Activity, E. coli HB101 (pSE-HOG)",[1]; substrate 100 mM,0.12 U/mg
same,Oxidative Activity,[2]; [6],19.4 U/mg
CC(=O)CO [Acetol],"reduction activity of the purified enzyme, in words",[3],high reduction activity
same,Reduction Activity,[3]; substrate 100 mM,64.9 U/mg
"CCCC(O)CO (stereo not drawn) [1,2-Pentanediol]","oxidative (dehydrogenation) activity of the purified enzyme, in words",[2]; [5],well-oxidized
same,Oxidative Activity,[2]; [6],99.3 U/mg
CCCCCCO [n-Hexanol],"oxidative (dehydrogenation) activity of the purified enzyme, in words",[2]; [5],did not have oxidative activity
"OCC[C@H](O)CO [(S)-1,2,4-Butanetriol]","dehydrogenation (oxidative) activity of E. coli HB101 (pSE-HOG), in words",[1],no activity was seen
same,"oxidative (dehydrogenation) activity of the purified enzyme, in words",[2]; [5],no activity was seen
CCCCCC(C)O (stereo not drawn) [2-Heptanol],"oxidative (dehydrogenation) activity of the purified enzyme, in words",[2]; [5],no activity was observed
"CCC(O)CO (stereo not drawn) [1,2-Butanediol]","oxidative (dehydrogenation) activity of the purified enzyme, in words",[2]; [5],well-oxidized
same,Oxidative Activity,[2]; [6],61.0 U/mg
